Results from EP0695544B1, “Hard gelatin capsules resistant to denaturation and the production thereof” (SHIONOGI & CO., LTD., priority 1994, dated 1996).
“Also recorded” adds a separate entry of the source. Like-named read-outs stand apart in the source and are kept apart here.

What was measured:
[1] = Solubility of gelatin capsule shells filled with PEG 4000 and free radical scavenger after storage (Example 3); format: physicochemical; settings: 5 parts scavenger + 95 parts PEG 4000 packed into capsule, 60°C for a week, content removed; 2nd solution of JP12 (37 °C)
Experimental: After storage in a tightly closed glass bottle at 60°C for a week, the capsule content was removed and solubility of each capsule shell was examined in the same manner as in Example 1.

[2] = capsule shells stored without contact over 95 parts PEG 6000 + 5 parts scavenger, 60°C for a week, 2nd solution of JP12 (37 °C), observed after 5 to 6 minutes

Row | Compound | Solubility [1] | Solubility [2] | Solubility ([2]; listed as tocopherol)
1 | Cc1cc2nc3c(=O)[nH]c(=O)nc-3n(C[C@H](O)[C@H](O)[C@H](O)CO)c2cc1C [riboflavin] |  | completely prevented the decrease of the solubility; also recorded: soluble rapidly | 
2 | O=P(=O)O [metaphosphoric acid] | soluble rapidly |  | 
3 | Cc1c(C)c2c(c(C)c1O)CC[C@@](C)(CCC[C@H](C)CCC[C@H](C)CCCC(C)C)O2 [d-α -tocopherol] | soluble rapidly | soluble rapidly | completely prevented the decrease of the solubility

The next lines start with results.

Row | Solubility [1] | Compound | Solubility [2] | Solubility ([2]; listed as tocopherol)
4 | soluble rapidly | N[C@@H](CCC(=O)N[C@@H](CS)C(=O)NCC(=O)O)C(=O)O [glutathione] |  | 
5 | soluble rapidly | polyphosphoric acid |  | 
